The values below are quoted from earlier work in US20170112865A1, “TREATMENT FOR MELANOMA” (The Board of Regents of the University of Texas System, priority 2014, published 2017).

The subject of data set [1] is BRAFV600E/k mutant advanced or malignant melanoma.
Data set [2] has as its system melanoma. The following applies: at 5 years.
The conditions of data set [3]: in vivo.
The conditions of data set [4]: in vivo. The source holds these as a separate data set.
Data set [5] deals with BRAF V600E mutation-positive advanced melanoma. The conditions noted are these: human, in vivo.

`CC(=O)Nc1cccc(-n2c(=O)n(C3CC3)c(=O)c3c(Nc4ccc(I)cc4F)n(C)c(=O)c(C)c32)c1` [Trametinib]: in data set [1] (Trametinib arm), the “Grade 3 adverse effect: hypertension” value is reported as 12% and the “Grade 3 adverse effect: rash” value was 7%. Moreover, in data set [1] (in vivo), the “most frequent adverse events” value is reported as “skin rash, diarrhea, edema, hypertension, fatigue”.
Regarding interferon, the increase in survival in data set [2] is 3%.
Take `C[C@H]1O[C@@H](O[C@H]2[C@@H](O)C[C@H](O[C@H]3[C@@H](O)C[C@H](O[C@H]4CC[C@@]5(C)[C@H](CC[C@@H]6[C@@H]5C[C@@H](O)[C@]5(C)[C@@H](C7=CC(=O)OC7)CC[C@]65O)C4)O[C@@H]3C)O[C@@H]2C)C[C@H](O)[C@@H]1O` [digoxin, Digoxin]: the half-life result in data set [3] is reported as “about 36 hours”. In addition, the “plasma concentration at which adverse effects are rare” value in data set [4] is less than 0.8 ng/mL.
With `CC(C)(C)c1nc(-c2cccc(NS(=O)(=O)c3c(F)cccc3F)c2F)c(-c2ccnc(N)n2)s1` [dabrafinib, Dabrafenib], the “time within which resistance occurs” value in data set [5] is given as 6 to 7 months.
